The record followed here is patent publication US8106055B2, “Substituted amide compounds” (Gruenenthal GmbH, priority 2007, dated 2012).

Assay [1] concerns the target T1, serotonin (5-HT) reuptake (Rattus norvegicus, UniProt P31652).
T1 construct: synaptosomes are freshly isolated from areas of the rat brain; from tissue; host or cells: rat brain synaptosomes (P2 fraction)
Description: Inhibition of serotonin (5HT) reuptake in synaptosomes from rat brain. In kind it is biochemical. The following applies: test concentration of 10 μM; read-out: 5-HT (inhibition of reuptake of serotonin, % inhibition). In a few lines: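 Freshly isolated rat brain synaptosomes (P2 fraction) used for 5-HT reuptake. Test compound at 10 μM, activity given as % inhibition.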

The target of assay [2] is T2, human bradykinin 1 receptor (B1R) (Homo sapiens, UniProt P46663).
T2 construct: expressed in transfected cells; host or cells: CHO K1 cells
T2 sequence (P46663 1-353): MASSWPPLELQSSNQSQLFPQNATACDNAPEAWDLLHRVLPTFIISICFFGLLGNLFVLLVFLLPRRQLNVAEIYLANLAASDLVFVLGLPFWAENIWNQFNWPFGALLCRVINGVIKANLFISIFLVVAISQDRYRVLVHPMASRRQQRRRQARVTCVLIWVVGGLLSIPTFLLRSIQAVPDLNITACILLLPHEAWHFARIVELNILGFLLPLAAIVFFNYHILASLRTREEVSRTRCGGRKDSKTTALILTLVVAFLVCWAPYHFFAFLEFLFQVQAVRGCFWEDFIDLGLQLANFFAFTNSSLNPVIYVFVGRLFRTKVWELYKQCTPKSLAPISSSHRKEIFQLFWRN
Description: Functional investigation on the human bradykinin 1 receptor (B1R), Ca2+ FLIPR assay in CHO K1 hB1R cells. In kind it is cell-based. The method, boiled down:
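Cells were dye-loaded with Fluo-4 plus probenecid, then test substances added and Ca2+ influx compared with agonist control for % activation. After 10-20 min, EC80 agonist (Lys-Des-Arg9-bradykinin human; Des-Arg9-bradykinin rat) was applied; suppression gave % inhibition and IC50 values.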

The mark [3] stands for this setting: CHO-K1, B1R antagonism human, test substance 10 μM, Ca2+ FLIPR, CHO K1 hB1R cells, read-out: B1R Ant. h [10 μM] % Inhibition.

Like-named read-outs stand apart in the source and are kept apart here.

T1 sequence (P31652 whole entry): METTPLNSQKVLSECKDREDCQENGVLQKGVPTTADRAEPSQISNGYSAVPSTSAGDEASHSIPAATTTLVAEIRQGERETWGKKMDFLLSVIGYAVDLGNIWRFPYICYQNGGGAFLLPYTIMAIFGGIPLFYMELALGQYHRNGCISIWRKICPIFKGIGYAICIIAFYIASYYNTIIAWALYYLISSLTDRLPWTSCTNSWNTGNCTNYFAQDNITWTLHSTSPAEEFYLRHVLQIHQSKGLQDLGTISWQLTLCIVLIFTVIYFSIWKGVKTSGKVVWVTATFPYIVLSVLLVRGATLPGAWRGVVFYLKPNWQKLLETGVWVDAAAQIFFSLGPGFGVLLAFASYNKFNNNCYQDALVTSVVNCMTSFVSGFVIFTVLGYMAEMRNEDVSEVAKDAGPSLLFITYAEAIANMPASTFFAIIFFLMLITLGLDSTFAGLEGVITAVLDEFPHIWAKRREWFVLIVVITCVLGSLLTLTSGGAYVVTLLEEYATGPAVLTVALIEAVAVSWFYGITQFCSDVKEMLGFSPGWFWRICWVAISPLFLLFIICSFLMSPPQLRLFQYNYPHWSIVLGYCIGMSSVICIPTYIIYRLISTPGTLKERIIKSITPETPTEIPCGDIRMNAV

Turning to `COc1ccc(S(=O)(=O)N2Cc3ccccc3CC2COCC(=O)NCCC2CCC(C(c3cccc(F)c3)N(C)C)CC2)cc1` (centres unmarked) [Example 190, N-(2-(4-((dimethylamino) (3-fluorophenyl)methyl)cyclohexyl)ethyl)-2-((2-(4-methoxyphenylsulfonyl)-1,2,3,4-tetrahydroisoquinolin-3-yl)methoxy)acetamide], the inhibition at 10 µM in assay [1] turned out to be 79%; in assay [2] (setting [3]) it was 29%.

On to `COc1cc(C)c(S(=O)(=O)N2CCC(OCC(=O)NCC3CCC(C(c4ccccc4)N(C)C)CC3)C2)c(C)c1` (centres unmarked) [Example 173, N-((4-((dimethylamino)(phenyl)methyl)cyclohexyl)methyl)-2-(1-(4-methoxy-2,6-dimethylphenylsulfonyl)pyrrolidin-3-yloxy)acetamide], for which the inhibition at 10 µM in assay [1] was found to be 95%; in assay [2] (setting [3]), 94%.

Regarding `CN(C)C(c1cccc(F)c1)C1CCC(CCNC(=O)COCCN(C)S(=O)(=O)c2cccc(C(F)(F)F)c2)CC1` (centres unmarked) [Example 192, N-(2-(4-((dimethylamino)(3-fluorophenyl)methyl)cyclohexyl)ethyl)-2-(2-(N-methyl-3-(trifluoromethyl)phenylsulfonamido)ethoxy)acetamide], the inhibition at 10 µM in assay [1] came to 94%; in assay [2] (setting [3]) it was 30%.

For `CN(C)C(c1ccccc1)C1CCC(CNC(=O)COCCN(C)S(=O)(=O)c2c(Cl)cc(Cl)cc2Cl)CC1` (centres unmarked) [Example 14, N-((4-((dimethylamino)(phenyl)methyl)cyclohexyl)methyl)-2-(2-(2,4,6-trichloro-N-methylphenylsulfonamido)ethoxy)acetamide], the inhibition at 10 µM came out at 99% in assay [1] and 104% in assay [2] (setting [3]).

Consider `COc1ccc(S(=O)(=O)N2Cc3ccccc3CC2COCC(=O)NCC2CCC(C(c3cccc(F)c3)N(C)C)CC2)cc1` (centres unmarked) [Example 163, N-((4-((dimethylamino)(3-fluorophenyl)methyl)cyclohexyl)methyl)-2-((2-(4-methoxyphenylsulfonyl)-1,2,3,4-tetrahydroisoquinolin-3-yl)methoxy)acetamide], for which the inhibition at 10 µM in assay [1] is 96%; in assay [2] (setting [3]), 40%.

With `COc1cc(C)c(S(=O)(=O)N2CCC(CCOCC(=O)NC3CCC(C(c4ccc(F)cc4)N(C)C)CC3)CC2)c(C)c1C` (centres unmarked) [Example 178, N-(4-((dimethylamino)(4-fluorophenyl)methyl)cyclohexyl)-2-(2-(1-(4-methoxy-2,3,6-trimethylphenylsulfonyl)piperidin-4-yl)ethoxy)acetamide], the inhibition at 10 µM came to 94% in assay [1] and 24% in assay [2] (setting [3]).

Turning to `CN(C)C(c1cccc(F)c1)C1CCC(CNC(=O)COC2CCCCC2N(C)S(=O)(=O)c2ccc(Cl)c(Cl)c2)CC1` (centres unmarked) [Example 164, 2-(2-(3,4-dichloro-N-methylphenylsulfonamido)cyclohexyloxy)-N-((4-((dimethylamino)(3-fluorophenyl)methyl)cyclohexyl)methyl)acetamide], the inhibition at 10 µM stood at 90% in assay [1] and 14% in assay [2] (setting [3]).

In the case of `CN(C)C(c1ccccc1)C1CCC(CNC(=O)COCC2CCCN2S(=O)(=O)c2ccc(Cl)c(Cl)c2)CC1` (centres unmarked) [Example 18, 2-((1-(3,4-dichlorophenylsulfonyl)pyrrolidin-2-yl)methoxy)-N-((4-((dimethylamino)(phenyl)methyl)cyclohexyl)methyl)acetamide], the results for the inhibition at 10 µM in assay [1] and in assay [2] (setting [3]) were 95% and 62%, respectively.

With `COc1cc(C)c(S(=O)(=O)N2CCN(CCOCC(=O)NCCC3CCC(C(c4cccc(F)c4)N(C)C)CC3)CC2)c(C)c1C` (centres unmarked) [Example 200, N-(2-(4-((dimethylamino)(3-fluorophenyl)methyl)cyclohexyl)ethyl)-2-(2-(4-(4-methoxy-2,3,6-trimethylphenylsulfonyl)piperazin-1-yl)ethoxy)acetamide], the inhibition at 10 µM is 95% in assay [1] and 73% in assay [2] (setting [3]).

As for `COc1ccc(S(=O)(=O)N2CCCCC2COCC(=O)NCC2CCC(C(c3cccc(F)c3)N(C)C)CC2)c(OC)c1` (centres unmarked) [Example 151, 2-((1-(2,4-dimethoxyphenylsulfonyl)piperidin-2-yl)methoxy)-N-((4-((dimethylamino)(3-fluorophenyl)methyl)cyclohexyl)methyl)acetamide], the inhibition at 10 µM in assay [1] came to 87%; in assay [2] (setting [3]) it was 24%.

With `COc1cc(C)c(S(=O)(=O)N(C)CCOCC(=O)NCC2CCC(C(c3ccccc3)N(C)C)CC2)c(C)c1` (centres unmarked) [Example 137, N-((4-((dimethylamino)(phenyl)methyl)cyclohexyl)methyl)-2-(2-(4-methoxy-N,2,6-trimethylphenylsulfonamido)ethoxy)acetamide], the inhibition at 10 µM came out at 89% in assay [1] and 102% in assay [2] (setting [3]).

In the case of `CN(C)C(c1ccccc1)C1CCC(CNC(=O)COC2CCN(S(=O)(=O)c3ccccc3)C2)CC1` (centres unmarked) [Example 195, N-((4-((dimethylamino)(phenyl)methyl)cyclohexyl)methyl)-2-(1-(phenylsulfonyl)pyrrolidin-3-yloxy)acetamide], the inhibition at 10 µM is 101% in assay [1] and -13% in assay [2] (CHO-K1, read-out: B1R Ant. h [10 μM] % Inhibition).

Take `CN(C)C(c1cccs1)C1CCC(CCNC(=O)COCCN(C)S(=O)(=O)c2cccc(C(F)(F)F)c2)CC1` (centres unmarked) [Example 32, N-(2-(4-((dimethylamino)(thiophen-2-yl)methyl)cyclohexyl)ethyl)-2-(2-(N-methyl-3-(trifluoromethyl)phenylsulfonamido)ethoxy)acetamide]: the inhibition at 10 µM in assay [1] came out at 97%; in assay [2] (setting [3]), 32%.

For the compound `CN(C)C(c1cccs1)C1CCC(NC(=O)COC2CCN(S(=O)(=O)c3ccccc3)C2)CC1` (centres unmarked) [Example 194, N-(4-((dimethylamino)(thiophen-2-yl)methyl)cyclohexyl)-2-(1-(phenylsulfonyl)pyrrolidin-3-yloxy)acetamide], the inhibition at 10 µM was 86% in assay [1] and -17% in assay [2] (setting [3]).

On to `CN(C)C(c1cccc(F)c1)C1CCC(CCNC(=O)COCC2CCCCN2S(=O)(=O)c2ccc(Cl)c(Cl)c2)CC1` (centres unmarked) [Example 147, 2-((1-(3,4-dichlorophenylsulfonyl)piperidin-2-yl)methoxy)-N-(2-(4-((dimethylamino)(3-fluorophenyl)methyl)cyclohexyl)ethyl)acetamide], for which the inhibition at 10 µM in assay [1] came to 96%; in assay [2] (setting [3]) it was 52%.

As for `CN(C)C(c1cccs1)C1CCC(NC(=O)COCCN(Cc2ccccc2)S(=O)(=O)c2ccccc2)CC1` (centres unmarked) [Example 161, 2-(2-(N-benzylphenylsulfonamido)ethoxy)-N-(4-((dimethylamino)(thiophen-2-yl)methyl)cyclohexyl)acetamide], the inhibition at 10 µM in assay [1] was 94%; in assay [2] (setting [3]), 1%.

Take `COc1ccc(S(=O)(=O)N2CCCC2COCC(=O)NC2CCC(C(c3ccccc3)N(C)C)CC2)cc1` (centres unmarked) [Example 182, N-(4-((dimethylamino)(phenyl)methyl)cyclohexyl)-2-((1-(4-methoxyphenylsulfonyl)pyrrolidin-2-yl)methoxy)acetamide]: the inhibition at 10 µM was determined as 85% in assay [1] and 9% in assay [2] (setting [3]).

On to `CN(C)C(c1cccs1)C1CCC(CCNC(=O)COCCN(C)S(=O)(=O)c2ccc(Cl)cc2Cl)CC1` (centres unmarked) [Example 9, 2-(2-(2,4-dichloro-N-methylphenylsulfonamido)ethoxy)-N-(2-(4-((dimethylamino) (thiophen-2-yl)methyl)cyclohexyl)ethyl)acetamide], for which the results for the inhibition at 10 µM in assay [1] and in assay [2] (setting [3]) were 91% and 97%, respectively.

As to `COc1ccc(S(=O)(=O)N2CCC(OCC(=O)NCC3CCC(C(c4ccccc4)N(C)C)CC3)C2)cc1OC` (centres unmarked) [Example 22, 2-(1-(3,4-dimethoxyphenylsulfonyl)pyrrolidin-3-yloxy)-N-((4-((dimethylamino)(phenyl)methyl)cyclohexyl)methyl)acetamide], the inhibition at 10 µM in assay [1] turned out to be 87%; in assay [2] (setting [3]), 0%.

As for `Cc1cc(C)c(S(=O)(=O)N2CCC(OCC(=O)NCC3CCC(C(c4cccc(F)c4)N(C)C)CC3)C2)c(C)c1` (centres unmarked) [Example 141, N-((4-((dimethylamino)(3-fluorophenyl)methyl)cyclohexyl)methyl)-2-(1-(mesitylsulfonyl)pyrrolidin-3-yloxy)acetamide], the inhibition at 10 µM in assay [1] was 80%; in assay [2] (setting [3]), 54%.

On to `CN(C)C(c1cccs1)C1CCC(NC(=O)COC2CCN(S(=O)(=O)c3cccc(C(F)(F)F)c3)C2)CC1` (centres unmarked) [Example 11, N-(4-((dimethylamino)(thiophen-2-yl)methyl)cyclohexyl)-2-(1-(3-(trifluoromethyl)phenylsulfonyl)pyrrolidin-3-yloxy)acetamide], for which the inhibition at 10 µM in assay [1] was 86%; in assay [2] (setting [3]), -16%.

Consider `CN(C)C(c1ccccc1)C1CCC(CNC(=O)COCC2CCCCN2S(=O)(=O)c2ccc(Cl)c(Cl)c2)CC1` (centres unmarked) [Example 17, 2-((1-(3,4-dichlorophenylsulfonyl)piperidin-2-yl)methoxy)-N-((4-((dimethylamino)(phenyl)methyl)cyclohexyl)methyl)acetamide], for which the values for the inhibition at 10 µM in assay [1] and in assay [2] (setting [3]) were 93% and 81%, respectively.

As a reminder, the inhibition is the relative decrease from the control value, in per cent.
